Results taken from paper PMC9419992 (Organic letters, 2022).

Columns and labels:
[1] = biological target: T1, LXRα [NR1H3] ligand binding domain (Homo sapiens, UniProt Q13133); assay: Radioligand binding assay with 3H-T0901317, LXRα ligand binding domain
T1 sequence (Q13133 209-447 limits assumed): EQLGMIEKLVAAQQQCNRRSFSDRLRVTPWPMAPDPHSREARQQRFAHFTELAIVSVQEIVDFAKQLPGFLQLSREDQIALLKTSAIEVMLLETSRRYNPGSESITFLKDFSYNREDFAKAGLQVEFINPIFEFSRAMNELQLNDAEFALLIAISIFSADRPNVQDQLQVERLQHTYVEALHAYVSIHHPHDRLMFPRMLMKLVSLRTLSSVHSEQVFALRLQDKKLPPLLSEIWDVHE

[2] = biological target: T2, LXRβ [NR1H2] ligand binding domain (Homo sapiens, UniProt P55055); assay: Radioligand binding assay with 3H-T0901317, LXRβ ligand binding domain
T2 sequence (P55055 222-460 limits assumed): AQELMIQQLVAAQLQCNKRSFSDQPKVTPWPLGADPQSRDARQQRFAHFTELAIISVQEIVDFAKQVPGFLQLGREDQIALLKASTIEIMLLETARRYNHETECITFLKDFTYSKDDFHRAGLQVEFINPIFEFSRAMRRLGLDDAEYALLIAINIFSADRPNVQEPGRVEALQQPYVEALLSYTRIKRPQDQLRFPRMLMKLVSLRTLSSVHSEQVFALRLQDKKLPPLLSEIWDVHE

[3] = system: ABCA1 expression (LXR target gene) in THP-1 cells; assay: Expression of LXR target gene ABCA1 in THP-1 monocytic cell line; assay type: cell-based, human; settings: compound at 10 μM

SMILES: C[C@H](CCCC(C)(C)O)[C@H]1CC[C@H]2[C@@H]3CC=C4C[C@@H](O)CC[C@]4(C)[C@H]3CC[C@]12C [25-hydroxycholesterol]
- Ki [1]: 4 µM
- Ki [2]: 6.9 µM
- ABCA1 expression [3]: increased the expression of ABCA1 as well, albeit at lower levels than T0901317

SMILES: O=S(=O)(c1ccccc1)N(CC(F)(F)F)c1ccc(C(O)(C(F)(F)F)C(F)(F)F)cc1 [Compound T0901317, T0901317]
- ABCA1 expression [3]: increasing the expression of ABCA1
